In patent US20230271969A1, “NITROGEN-CONTAINING FUSED RING DERIVATIVE INHIBITOR, PREPARATION METHOD THEREFOR AND USE THEREOF” (Shanghai Hansoh Biomedical Co., Ltd., priority 2020, published 2023):

Columns and labels:
NK3 receptors [1] = biological target: T1, NK3 receptors (Homo sapiens, UniProt P29371); test: Calcium ion fluidity (FLIPR) in cells with stable expression of NK3 receptors; type: cell-based; conditions: calcium signal, antagonist mode, read-out: NK3R IC50 (nM) FLIPR
T1 construct: expressed in transfected cells
T1 sequence (P29371 1-465): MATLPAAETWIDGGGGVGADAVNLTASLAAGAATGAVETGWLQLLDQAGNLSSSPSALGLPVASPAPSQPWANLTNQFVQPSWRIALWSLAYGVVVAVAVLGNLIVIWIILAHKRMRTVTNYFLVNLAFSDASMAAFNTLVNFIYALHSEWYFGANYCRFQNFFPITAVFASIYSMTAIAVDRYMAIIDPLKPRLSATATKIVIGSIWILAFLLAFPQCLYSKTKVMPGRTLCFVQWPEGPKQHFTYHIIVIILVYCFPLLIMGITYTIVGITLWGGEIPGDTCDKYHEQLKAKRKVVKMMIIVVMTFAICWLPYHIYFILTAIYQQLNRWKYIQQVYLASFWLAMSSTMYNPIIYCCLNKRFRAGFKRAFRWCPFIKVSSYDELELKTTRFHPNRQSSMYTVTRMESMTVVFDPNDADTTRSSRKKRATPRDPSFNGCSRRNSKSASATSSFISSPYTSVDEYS

NK3 receptors [2] = biological target: T1, NK3 receptors; test: Antagonism of IP1 in HEK293 cells with stable expression of NK3; type: cell-based; conditions: agonist Senktide 3 nM, read-out: NK3R IC50 (nM) IP1
[3] = test system: luteinizing hormone (LH) content in plasma; test: Luteinizing hormone (LH) content in plasma of bilateral ovariectomy (OVX) rats; type: in vivo; conditions: oral 30 mg/kg, plasma LH 0-8 h
Description: Test Example 5. Effect of the Compounds of the Present Invention on Luteindzing Hormone (LH) Content in Plasma of Bilateral Ovariectomy (OVX) Rats
The objective of this test example was to determine the effect of the compounds on luteinizing hormone (LH) in plasma of bilateral ovarnectomy (OVX) rats.
10-Week-old female bilateral ovariectomy SD rats were purchased from Beijing Vital River Laboratory Animal Technology Co., Ltd. The animals were housed in a SPF grade animal facility with 5 SD rats per cage. The cages, bedding, feed and water were disinfected at high temperatures before use. All animals had free access to food and water.
Drug administration by groups: 10-Week-old female SD rats were subjected to bilateral ovariectomy and used in experiments after 3 weeks. Each SD rat was fasted overnight before the experiment, and then randomly divided into groups (3 rats per group) before the drug administration. Different test compounds were administered orally to each drug administration group at a dose of 30 mg/kg and a volume of 10 mL/kg.
Sample collection: 0.2-0.3 mL of whole blood of the SD rats in each group was collected at 0, 0.5, 1, 2, 4, 8 hours before and after the drug administration, and placed in EDTA-K2 tubes. The tubes were inverted and mixed well, and centrifuged at 4° C. at 5,000 rpm for 5 min. Then the plasma was separated and stored in an ultra-low temperature freezer (−80±10° C.).
Sample detection: All reagents, samples and ELISA plates were equilibrated at room temperature (20-25° C.) for at least 30 min. The sample was thawed, vortexed and centrifuged for use. The standard curve was prepared with Assay buffer C according to the concentration sequence of 10, 5, 2.5, 1.25, 0.625, 0.313 and 0. The sample was diluted by two folds with Sample dilution buffer G and left to stand at room temperature for 10 min. […] The OD values of each well was read at a wavelength of 450 nm with a microplate reader.
The standard curve was plotted by using Graphpad, and the concentration of the sample was calculated. […]

SMILES | IC50 (NK3 receptors [1]) [nM] | IC50 (NK3 receptors [2]) [nM] | ΣAUC(ΔLH/LH · h, Mean ± SD) [3]
[2H]c1cc(C(=O)N2CCn3c(-c4nc5cc(F)c(F)cc5s4)nnc3[C@H]2C)ccc1F [Example 62] | 73.6 | 92.3 | −1.77 ± 0.42 ΔLH/LH · h
[2H]c1cc(C(=O)N2CCn3c(-c4nc(Cl)ns4)nnc3[C@H]2C)ccc1Cl [Example 73, (R)-(3-(3-Chloro-1,2,4-thiadiazol-5-yl)-8-methyl-5,6-dihydro-[1,2,4]triazolo[4,3-a]pyrazin-7(8H)-yl)(4-chlorophenyl-3-d)methanone] | 267 |  | −2.04 ± 1.36 ΔLH/LH · h
